Key:
erectile dysfunction = test system: erectile dysfunction; parameters: species or system human; settings: in vivo
facial wrinkles = settings: human, in vivo
hair loss and baldness = test system: hair loss and baldness; parameters: species or system human; settings: in vivo
Peyronie's disease = test system: Peyronie's disease; parameters: species or system human; settings: in vivo

CC12CCC(CC1)C(C)(C)O2 [eucalyptol]
erections (erectile dysfunction): improved erections were obtained

CC1=C(/C=C/C(C)=C/C=C/C(C)=C/C(=O)O)C(C)(C)CCC1 [Retin A, tretinoin]
duration of wrinkle reducing effect (facial wrinkles): lasts up to one week
period over which wrinkle reducing effect occurs (facial wrinkles): 72 h
wrinkle treatment outcome (facial wrinkles): used successfully

Nc1cc(N2CCCCC2)nc(N)[n+]1[O-] [minoxidil]
time of treatment after which new hair growth began (hair loss and baldness): 30 days

C[C@H]1C[C@H]2[C@@H]3CCC4=CC(=O)C=C[C@]4(C)[C@@]3(F)[C@@H](O)C[C@]2(C)[C@@]1(O)C(=O)CO [betamethasone]
time of treatment after which new hair growth began (hair loss and baldness): 30 days

CC1CCC(C(C)C)C(O)C1 (stereo not drawn) [menthol]
erections (erectile dysfunction): improved erections were obtained

botulinum toxina [Botox]
duration of wrinkle reducing effect (facial wrinkles): lasts up to one week
period over which wrinkle reducing effect occurs (facial wrinkles): 72 h
wrinkle treatment outcome (facial wrinkles): used successfully

CC(C)NCC(O)COc1cccc2ccccc12 (stereo not drawn) [propranolol]
penile curvature outcome (Peyronie's disease): gradually attained a straightened penis
time to straightened penis (Peyronie's disease): ≤ 90 days

— patent US20090069359A1 (priority 2006, published 2009)
